Measurements taken from article PMC7764606 (Cancers, 2020).
Like-named read-outs stand apart in the source and are kept apart here.

What was measured:
[1] = tested on: T1, AKR1C3 in HCT116-C3 cells; test: Dau metabolism to Dau-ol in HCT116 cells transiently overexpressing AKR1C3; type: cell-based, human; conditions: 5 h
T1 construct: expressed in transfected cells; host or cells: HCT116
Method: (§1) HCT116 cells were seeded (1.25 × 10^5 cells/well) in 24-well plates and cultured for 24 h. For the transient expression of the recombinant human AKR1C3, the cells were transfected with a pCI_AKR1C3 or empty pCI plasmid as control (previously described in a study by Hofman et al.) according to the manufacturer’s instructions (jetPRIME® Transfection Reagent; Polyplus Transfection®, Illkirch, France). For each 24-well plate, a mixture of 0.75 µL of the jetPRIME® Transfection Reagent and 0.25 µg of plasmid was incubated for 10 min at room temperature. Then, polyplexes were added to the HCT116 cells with 0.5 mL of fresh DMEM supplemented with 10% FBS and incubated for 24 h (37 °C, 5% CO2). The expression of recombinant AKR1C3 was verified by western blotting as per methods described previously.
(§2) After transfection of HCT116 cells or seeding of A549 cells (25 × 10^3 cells/well) in 24-well plates for 24 h, the medium was harvested and replaced with DMEM supplemented with 10% FBS containing 1 µM daunorubicin, with or without increasing concentrations (1, 5, and 10 μM) of BTK inhibitors. Cells were incubated (37 °C, 5% CO2) for 2.5 and 5 h (transfected HCT116) or only 5 h (A549). Then, the medium was collected and the cells were lysed in lysis buffer (25 mM Tris, 150 mM NaCl, and 1% Triton X-100, pH 7.8) for 15 min at room temperature. The collected medium was combined with cell lysate for further extraction and analysis of metabolites, as per methods described previously.

[2] = target: T2, recombinant AKR1C3 (Homo sapiens, UniProt P42330); test: Reduction of Dau by recombinant AKR1C3 (UHPLC detection of Dau-ol); type: biochemical; conditions: for reduction of AKR1C3 activity (Dau reduction): Dau 500 µM, relative to DMSO; for Ki: read-out: Ki^app (Morrison equation for tight-binding inhibitors)
T2 construct: made in house; host or cells: Escherichia coli
T2 sequence (P42330 1-323): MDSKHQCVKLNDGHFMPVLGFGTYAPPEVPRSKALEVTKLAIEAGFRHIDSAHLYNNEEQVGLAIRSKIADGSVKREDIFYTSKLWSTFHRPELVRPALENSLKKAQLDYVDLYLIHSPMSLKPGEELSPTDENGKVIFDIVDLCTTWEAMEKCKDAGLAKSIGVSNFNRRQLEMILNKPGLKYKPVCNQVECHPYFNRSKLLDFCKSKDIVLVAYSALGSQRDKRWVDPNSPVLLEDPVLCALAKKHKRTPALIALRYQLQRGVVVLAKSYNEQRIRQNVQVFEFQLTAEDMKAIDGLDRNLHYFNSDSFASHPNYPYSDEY
Method: Human recombinant CREs (CBR1, AKR1A1, 1B1, 1B10, 7A2, and 1C3) were produced by an Escherichia coli expression system as per methods described previously. For the inhibitory assay, each recombinant enzyme, CBR1 (1 µg), AKR1A1 (1 µg), AKR1B1 (5 µg), AKR1B10 (5 µg), AKR7A2 (3 µg), or AKR1C3 (1.5 µg) was incubated with BTK inhibitors at different concentrations (10 and 50 µM) and the substrate Dau (500 µM). For analysis using the Lineweaver-Burk plot, 1.5 µg of recombinant AKR1C3 was incubated with DMSO or BTK inhibitors (1, 5, and 10 µM) and Dau (200, 400, 600, 800, 1000, and 2000 µM). […] The incubations and further metabolite detection were further performed by using ultra-high-performance liquid chromatography (UHPLC) as per methods described previously.

[3] = tested on: A549 cells; test: Intracellular metabolism of Dau in A549 cells; type: cell-based, human; conditions: 5 h
Method: as §2

[4] = tested on: HCT116-EV cells; test: MTT cell viability, HCT116-EV cells (incl. Chou-Talalay analysis); type: cell-based, human
Method: as §1
Twenty-four hours prior to the experiment, transfected HCT116 cells (8 × 10^3 cells/well) or A549 cells (5 × 10^3 cells/well) were seeded in 96-well plates. The cell culture medium was replaced with fresh medium containing increasing amounts of Dau (final concentrations: 0.01, 0.05, 0.1, 0.25, 0.5, 0.75, 1, and 10 µM) with or without BTK inhibitors (final concentrations: 1, 5, and 10 µM). After 72 h of incubation under standard conditions (37 °C, 5% CO2), cell viability was assessed by MTT (Sigma-Aldrich, Prague, Czech Republic) assay. For this, 50 µL of the MTT solution (3 mg/mL) was added to each well and incubated for 30 min. The supernatant was collected, and the cell monolayers were dissolved in 100 µL of DMSO. The absorbance was measured at 570 and 690 nm by a microplate reader Infinite M200 (Tecan, Salzburg, Austria), and the background values at 690 nm were subtracted from the absorbance obtained at 570 nm. The half-maximal inhibitory concentrations (IC50) were calculated using GraphPad Prism 8.1.2. The drug combination pharmacodynamics were determined by the Chou-Talalay method using the CompuSyn ver. 3.0.1 software (ComboSyn Inc., Paramus, NJ, USA).

[5] = recommended dose 200 mg/day, cited from earlier work
[6] = BTK-inhibitor 5 µM + Dau 0.25 µM
[7] = BTK-inhibitor 5 µM + Dau 0.50 µM
[8] = BTK-inhibitor 5 µM + Dau 0.75 µM
[9] = BTK-inhibitor 5 µM + Dau 1.00 µM
[10] = BTK-inhibitor 10 µM + Dau 0.25 µM
[11] = BTK-inhibitor 10 µM + Dau 0.50 µM
[12] = BTK-inhibitor 10 µM + Dau 0.75 µM
[13] = BTK-inhibitor 10 µM + Dau 1.00 µM

**Q.** With `CC#CC(=O)N1CCC[C@H]1c1nc(-c2ccc(C(=O)Nc3ccccn3)cc2)c2c(N)nccn12` [Acalabrutinib, acalabrutinib] as the compound, how does the “decrease in AKR1C3 activity (Dau to Dau-ol)” value (from here on “decrease in AKR1C3 activity”) ([1]; 1 µM BTK inhibitor + 1 µM Dau) read?
**A.** 31.96% ± 13.51%

**Q.** And the “decrease in AKR1C3 activity” value ([1]; 5 µM BTK inhibitor + 1 µM Dau)?
**A.** 67.15% ± 10.35%

**Q.** What about the “decrease in AKR1C3 activity” value ([1]; 10 µM BTK inhibitor + 1 µM Dau) of the same compound?
**A.** 65.56% ± 1.53%

**Q.** And the “reduction of AKR1C3 activity (Dau reduction)” value ([2]; 10 µM BTK inhibitor)?
**A.** 89.55% ± 4%

**Q.** What about the “reduction of AKR1C3 activity (Dau reduction)” value ([2]; 50 µM BTK inhibitor) of the same compound?
**A.** 96.28% ± 1.58%

**Q.** And the Ki ([2]; AKR1C3 0.005 mg/mL (0.135 μM))?
**A.** 451 nM

**Q.** What about the Ki ([2]; AKR1C3 0.015 mg/mL (0.405 μM)) of the same compound?
**A.** 521 nM

**Q.** And the Ki ([2]; AKR1C3 0.030 mg/mL (0.811 μM))?
**A.** 566 nM

**Q.** And the “mode of inhibition (Lineweaver-Burk plot)” value ([2]; recombinant AKR1C3 with increasing Dau)?
**A.** non-competitive/mixed

**Q.** What about the “reduction of intracellular metabolism of Dau” value (“reduction … of Dau” below) ([3]; 1 µM BTK inhibitor + 1 µM Dau) of the same compound?
**A.** 12.13% ± 5.19%

**Q.** And the “reduction … of Dau” value ([3]; 5 µM BTK inhibitor + 1 µM Dau)?
**A.** 34.32% ± 7.09%

**Q.** And the “reduction … of Dau” value ([3]; 10 µM BTK inhibitor + 1 µM Dau)?
**A.** 44.24% ± 9.06%

**Q.** And the “Combination index (CI)” value [4, 6]?
**A.** 0.64 ± 0.07

**Q.** What about the “Dose reduction index for Dau” value [4, 6] of the same compound?
**A.** 1.59 ± 0.16

**Q.** What about the “Fraction affected (Fa %)” value [4, 6] of the same compound?
**A.** 57.98 ± 10.7%

**Q.** What about the “Combination index (CI)” value [4, 7] of the same compound?
**A.** 0.80 ± 0.02

**Q.** What about the “Dose reduction index for Dau” value [4, 7] of the same compound?
**A.** 1.26 ± 0.03

**Q.** What about the “Fraction affected (Fa %)” value [4, 7] of the same compound?
**A.** 76.14 ± 4.55%

**Q.** What about the “Combination index (CI)” value [4, 8] of the same compound?
**A.** 0.73 ± 0.05

**Q.** What about the “Dose reduction index for Dau” value [4, 8] of the same compound?
**A.** 1.38 ± 0.09

**Q.** What about the “Fraction affected (Fa %)” value [4, 8] of the same compound?
**A.** 88.86 ± 2.18%

**Q.** And the “Combination index (CI)” value [4, 9]?
**A.** 0.93 ± 0.17

**Q.** What about the “Dose reduction index for Dau” value [4, 9] of the same compound?
**A.** 1.10 ± 0.20

**Q.** What about the “Fraction affected (Fa %)” value [4, 9] of the same compound?
**A.** 89.81 ± 0.07%

**Q.** And the “Combination index (CI)” value [4, 10]?
**A.** 0.64 ± 0.01

**Q.** And the “Dose reduction index for Dau” value [4, 10]?
**A.** 1.60 ± 0.00

**Q.** And the “Fraction affected (Fa %)” value [4, 10]?
**A.** 58.22 ± 6.27%

**Q.** And the “Combination index (CI)” value [4, 11]?
**A.** 0.68 ± 0.05

**Q.** What about the “Dose reduction index for Dau” value [4, 11] of the same compound?
**A.** 1.48 ± 0.11

**Q.** What about the “Fraction affected (Fa %)” value [4, 11] of the same compound?
**A.** 81.17 ± 2.72%

**Q.** And the “Combination index (CI)” value [4, 12]?
**A.** 0.62 ± 0.12

**Q.** And the “Dose reduction index for Dau” value [4, 12]?
**A.** 1.65 ± 0.31

**Q.** And the “Fraction affected (Fa %)” value [4, 12]?
**A.** 91.66 ± 0.08%

**Q.** And the “Combination index (CI)” value [4, 13]?
**A.** 0.88 ± 0.12

**Q.** And the “Dose reduction index for Dau” value [4, 13]?
**A.** 1.15 ± 0.15

**Q.** And the “Fraction affected (Fa %)” value [4, 13]?
**A.** 90.59 ± 0.95%

**Q.** What about the IC50 ([4]; Homo sapiens, 72 h MTT, read-out: IC50 of BTK inhibitor alone (cell viability)) of the same compound?
**A.** 33000 nM

**Q.** And the “approximate Cmax” value [5]?
**A.** ~825 ng/mL

**Q.** What about the Cmax ([5]; read-out: approximate Cmax) of the same compound?
**A.** ~1800 nM
